Experiments:
[1] = tested on: embryonic (E18) rat cortical and striatal neurons; assay: LDH assay, glutamate / tPA insult (Example 1); type: cell-based
Experimental: For this example PAN-811 was dissolved in PEG:EtOH (7:3) to a concentration of 25 mM, and further diluted in neurobasal medium to a final concentration of 2 μM. The control vehicle is 1:12,500 PEG:EtOH (7:3 in BSS).
(§1) A mixed culture of embryonic (E18) rat cortical and striatal neurons was cultured for 22 days in 50% antioxidative (AO) neurobasal medium (made by replacing 50% of the neurobasal culture medium with a medium comprised of neurobasal plus B27 supplement (minus AO, i.e., without the antioxidants vitamin E, vitamin E acetate, 2.5 mg/L superoxide dismutase, 2.5 mg/L catalase, and 1 mg/L glutathione) (from Invitrogen)), and then divided into test groups in accordance with the following scheme: (1) not insulted (control); (2) insulted with 15 μM glutamate; (3) insulted with 20 μg/ml tPA; or (4) insulted with both 15 μM glutamate and 20 μg/ml tPA, for a period of 24 hours. In a further test category, neurons that were to be insulted for 24 hours with the combination of 15 μM glutamate and 20 μg/ml tPA, were divided into groups in which (1) cells were not pre-treated prior to insult; (2) were pretreated overnight with 1:12,500 vehicle (used for PAN-811), or (3) were pre-treated overnight with PAN-811 (in vehicle).
(§2) The lactate dehydrogenase (LDH) assay (Promega) is based on the reduction of NAD by the action of LDH. The resulting reduced NAD (NADH) is utilized in the stoichiometric conversion of a tetrazolium dye. If cell-free aliquots of medium from cultures given different treatments are assayed, then the amount of LDH activity can be used as an indicator of relative cell death as well as a function of membrane integrity. A 50 μl aliquot of culture medium from a well in tested 96-well plate is transferred into a well in unused plate and supplemented with 25 μl of equally-mixed Substrate, Enzyme and Dye Solutions (Sigma). The preparation is incubated at room temperature for 20-30 minutes, and then measured spectrophotometrically at wavelength of 490 nm.

[2] = tested on: embryonic (E18) rat cortical and striatal neurons; assay: Morphological changes, H/H and tPA insult (Example 2); type: cell-based
Experimental: (§3) A mixed culture of embryonic (E18) rat cortical and striatal neurons was cultured for 13 days in neurobasal medium (Invitrogen), then insulted by hypoglycemia/hypoxia (H/H) conditions for 6 hours, or a combination of H/H and 20 μg/ml tPA. The H/H conditions were 1.2 mM glucose (normally 25 mM in culture medium) and the absence of oxygen for 6 hours. (Following H/H conditions, the cultures were returned to the typical conditions of 25 mM glucose medium and 95% ambient air plus 5% CO2.)
(§4) In a further experiment, cells that were under H/H conditions and also treated with the tPA were divided into groups, which were either co-treated or post-treated (i.e., during or after the 6 hour insult period) with control vehicle or each of PAN-811 at concentrations of 1.25, 2.5, 5 and 10 μM.
The experimental results were evaluated by morphological changes, and LDH and MTS analyses.

[3] = tested on: embryonic (E18) rat cortical and striatal neurons; assay: LDH assay, hypoglycemia/hypoxia (H/H) and tPA insult (Example 2); type: cell-based
Experimental: as §2
In this example, PAN-811 was dissolved in PEG:EtOH (7:3) to a concentration of 25 mM, and further diluted in neurobasal medium to final concentrations of 1.25, 2.5, 5 and 10 μM. The control vehicle is 1:10,000 PEG:EtOH (7:3 in BSS).
as §3, §4

[4] = single 2-h infusion every 4 weeks, cited from earlier work
[5] = systematic administration (Jiang et al.); cited from earlier work
[6] = tested on: embryonic (E18) rat cortical and striatal neurons; assay: Morphological changes, glutamate / tPA insult (Example 1); type: cell-based; settings: 15 μM glutamate, 20 μg/ml tPA, insult 24 hours
Experimental: as §1
The experimental results were evaluated by morphological changes, lactate dehydrogenase (LDH) and MTS (mitochondrial function) analyses.

[7] = tested on: embryonic (E18) rat cortical and striatal neurons; assay: MTS (mitochondrial function) assay, glutamate / tPA insult (Example 1); type: cell-based; settings: 15 μM glutamate, 20 μg/ml tPA, insult 24 hours
Experimental: as §1, with “In a further test category, neurons that were to be insulted for 24 hours with the combination of 15 μM glutamate and 20 μg/ml tPA, were divided into groups in which (1) cells were not pre-treated prior to insult; (2) were pretreated overnight with 1:12,500 vehicle (used for PAN-811), or (3) were pre-treated overnight with PAN-811 (in vehicle).” left out
The 3-(4,5-dimethylthiazol-2-yl)-5-(3-carboxymethoxyphenyl)-2-(4-sulfophenyl)-2H-tetrazolium (MTS) assay (Promega) is routinely used to evaluate mitochondrial function, and reduced readings are correlated with neuronal cell death. The MTS tetrazolium compound is reduced in metabolically active mitochondria into a colored formazan product that is soluble in tissue culture medium, and can be detected via its absorbance 490 nm. […] The absorbance at 490 nm was recorded using a Bio-Rad 96 well plate reader.

[8] = tested on: tPA-potentiated, NMDA-mediated, excitotoxic neuronal death; settings: cited from earlier work
[9] = tested on: embryonic (E18) rat cortical and striatal neurons; assay: MTS assay, H/H and tPA insult (Example 2); type: cell-based; settings: H/H 6 hours combined with 20 μg/ml tPA
Experimental: The 3-(4,5-dimethylthiazol-2-yl)-5-(3-carboxymethoxyphenyl)-2-(4-sulfophenyl)-2H-tetrazolium (MTS) assay (Promega) is routinely used to evaluate mitochondrial function, and reduced readings are correlated with neuronal cell death. The MTS tetrazolium compound is reduced in metabolically active mitochondria into a colored formazan product that is soluble in tissue culture medium, and can be detected via its absorbance 490 nm. 10 μl of MTS reagent (Promega) are added to each well of the 96 well assay plates containing the samples in 50 μl of culture medium. The plate is then incubated in a humidified, 5% CO2 atmosphere at 37° C. for 1-2 hours until the color is fully developed. The absorbance at 490 nm was recorded using a Bio-Rad 96 well plate reader.
as §3

For NC(=S)N/N=C/c1ncccc1N [PAN-811, 3-aminopyridine-2-carboxaldehyde thiosemicarbazone], the “reduction of LDH reading as compared to no pre-treatment or control vehicle” value ([1]; pre-treated overnight with 2 μM PAN-811, insult 15 μM glutamate and 20 μg/ml tPA, 24 hours) was “about 11%”, the neuronal morphology ([2]; co- or post-treatment, 1.25-10 μM PAN-811, H/H and tPA conditions) was “preserved neuronal morphology” and the “neuroprotection (LDH readings)” value ([3]; 1.25 μM PAN-811, H/H and tPA) was “effective in significantly reducing LDH readings”. The “protection (LDH)” value ([3]; 5 μM PAN-811 post-insult (H/H and tPA)) was 51%, the “decrease of LDH reading” value ([3]; co-treated with 5 μM PAN-811 during H/H and tPA insult) was 23% and the “dose dependence of protection” value ([3]; co-treatment or post-treatment, 1.25, 2.5, 5 and 10 μM, H/H and tPA) was “showed a dose response correlation”. The well tolerated dose ([4]; 46 courses of therapy) was “up to 105 mg/m^2”, the dose limiting toxicity ([4]; doses up to 105 mg/m^2) was “not identified” and the “passage of the BBB” value [5] was “will pass the BBB”.

With N[C@@H](CCC(=O)O)C(=O)O [glutamate, reference compound] the “increase in LDH over the control” value ([1]; 15 μM glutamate, 20 μg/ml tPA, insult 24 hours) was 4.4 fold, the morphology of neurons [6] was “strong neuronal cell death” and the “reduction in the MTS reading over the control” value [7] was 13%.

In the case of Cl.Cl.N=C(N)c1ccc(C=C2CCCCC(=Cc3ccc(C(=N)N)cc3)C2=O)cc1 [tPA-Stop™, 2,7-bis-(4-amidino-benzylidene)-cycloheptan-1-one dihydrochloride], the “effect on alpha-amino-2,3-dihydro-5-methyl-3-oxo-4-isoxazole propanoic acid or kainate-mediated necrosis” value [8] is given as “fails to modulate” and the “effect on tPA-potentiated, NMDA-mediated, excitotoxic neuronal death” value [8] is given as “effective in reducing”.

For “tPA: Recombinant tissue-type plasminogen activator, a thrombolytic-acting drug approved for ischemic stroke”, the “toxicity to neurons by LDH assay” value ([1]; 20 μg/ml tPA alone, 24 hours) was “not toxic”, the morphology of neurons [6] was “neurons remained healthy” and the “morphology, neuronal cell death” value ([2]; H/H combined with 20 μg/ml tPA, by 17 hours post-insult) was “robust neuronal cell death”. For the same compound, the “reduction in the MTS reading over the control” value [7] was “did not cause any reduction”, the “enhancement in the LDH reading over control” value ([3]; H/H 6 hours combined with 20 μg/ml tPA) was 3.3 fold and the “decrease of MTS reading” value [9] was 51%.

— patent US20080039471A1, “Composition and method to inhibit tissue plasminogen activator (tPA) - potentiated neurotoxicity” (priority 2006, published 2008)
